According to patent publication EP4786467A1, “QUINOLINONE COMPOUND, PREPARATION METHOD THEREFOR AND USE THEREOF” (Vigonvita Life Sciences Co., Ltd., priority 2023, dated 2025):

Tested on: Male C57 mice
Assay: Forced Swim Test
Type: in vivo
Conditions: 10 mg/kg, intraperitoneally, 0.5h after administration; compared to the solvent control group; Figure 1
Experimental: Drugs to be tested: The compounds of the present invention and the positive control compound (vortioxetine) were mixed with 5% DMSO, then mixed with 5% Solutol® HS 15, and then 90% physiological saline was added to prepare a solution of appropriate concentration. The solution was prepared immediately before use.
Animal: Male C57 mice, approximately 22g. Animals were randomly divided into a blank control group and each test drug group, with 8 animals in each group. Mice in each group were intraperitoneally injected with either the solvent or the test drug.
Experimental Procedure: Forced swimming test was performed on the mice 0.5h after drug administration. The water level in the forced swimming device was 45cm, and the water temperature was 25°C. The mice were placed in the experimental room for 1h to acclimatize before the experiment. Mice were placed in the device at the start of the experiment for 6 minutes, and the entire process was recorded by a camera. Data analysis only considered the immobility time of the mice during the last 4 minutes.

Cc1ccc(Sc2ccccc2N2CCNCC2)c(C)c1 [vortioxetine]
immobility time of mice: significantly reduced the immobility time
